The source of these data is PubChem BioAssay (NCI).

Some test systems named below: HOP-62 NSCLC; TK-10 renal; HS 578T breast; SN12C renal; UACC-62 melanoma; CAKI-1 renal; NCI-H522 lung; OVCAR-5 ovarian; COLO 205 colon; LOX IMVI melanoma.
Assay in all cases: DTP human tumour cell line panel, 48 h

Structures are written as SMILES. Where “and” joins values, the source holds several entries; their conditions need not be identical. Identical values can stand only once.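 A five-concentration, 48-hour dose response in 96-well plates underlies each endpoint, interpolated linearly between surrounding concentrations. GI50 = concentration required for 50% inhibition of growth. TGI: total growth inhibition.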 Some results are limits rather than exact numbers.

For the molecule `CCNC(=O)Nc1cccc(C)n1`, the TGI in the assay on HOP-62 NSCLC, in the assay on TK-10 renal, in the assay with HS 578T breast, in the assay on SN12C renal, with UACC-62 melanoma and with CAKI-1 renal was over 100 µM in each case. In addition, the TGI in the assay on NCI-H522 lung, in the assay on OVCAR-5 ovarian and in the assay with COLO 205 colon was over 100 µM in each case.
Take `COc1cc(-c2nc3cc(F)ccc3s2)ccc1O`: the total growth inhibition concentration (TGI) with TK-10 renal was over 100 µM; with SN12C renal, over 100 µM; in the assay with LOX IMVI melanoma, over 100 µM; with UACC-62 melanoma it was over 100 µM; with CAKI-1 renal, over 100 µM; with NCI-H522 lung, 78.4 µM. For the same molecule, the TGI with OVCAR-5 ovarian and in the assay with COLO 205 colon was over 100 µM each time.
As for `COc1cc(OC)c2c(O)cc(CC(C)O)cc2c1` (configuration not stated), the concentration for total growth inhibition (TGI) in the assay on HOP-62 NSCLC, with TK-10 renal, in the assay on SN12C renal, with LOX IMVI melanoma, with UACC-62 melanoma and in the assay with CAKI-1 renal was over 100 µM in each case. In addition, the concentration for total growth inhibition (TGI) with NCI-H522 lung, with OVCAR-5 ovarian and in the assay on COLO 205 colon was over 100 µM in each case.
With `COC1=CC(=O)c2ccccc2C1(CCC=C(C)C)C1=NC(C)(C)CO1` (configuration not stated), the TGI in the assay on HOP-62 NSCLC, in the assay with TK-10 renal, with SN12C renal, with UACC-62 melanoma, in the assay on CAKI-1 renal and with NCI-H522 lung was over 100 µM throughout. The molecule also returned a concentration for total growth inhibition (TGI) in the assay on COLO 205 colon of over 100 µM.
On to `O=C(CSc1nc2ccccc2[nH]1)Nc1ccc(-c2nc3ccccc3s2)c(Cl)c1`, for which the GI50 with TK-10 renal was 4.67 µM; in the assay with HS 578T breast, 4.5 µM; with LOX IMVI melanoma it was 4.95 µM; in the assay with CAKI-1 renal, 4.17 µM; in the assay on OVCAR-5 ovarian, 3.63 µM; with COLO 205 colon, 4.16 µM. For the same molecule, the concentration for total growth inhibition (TGI) with TK-10 renal is 76.6 µM; in the assay on HS 578T breast it was over 100 µM; in the assay with LOX IMVI melanoma, over 100 µM; with CAKI-1 renal, over 100 µM; in the assay on OVCAR-5 ovarian it was 13.6 µM; in the assay with COLO 205 colon it was 51.4 µM.
On to `CC1(C)OC2OC(COC(=O)C=[N+]=[N-])C3OC(C)(C)OC3C2O1` (configuration not stated), for which the total growth inhibition concentration (TGI) with HOP-62 NSCLC, with TK-10 renal, in the assay with SN12C renal, in the assay with LOX IMVI melanoma, in the assay on UACC-62 melanoma and with CAKI-1 renal was over 100 µM each time. Further, the TGI in the assay with NCI-H522 lung, in the assay with OVCAR-5 ovarian and in the assay on COLO 205 colon was over 100 µM each time.
Regarding `COC(=O)C12Oc3ccc(-c4ccc5c(c4O)C(=O)C4=CCC(C)C(O)C4(C(=O)OC)O5)c(O)c3C(=O)C1=CCC(C)C2O` (configuration not stated), the concentration for total growth inhibition (TGI) was determined as 4.12 µM in the assay with HOP-62 NSCLC; 5.24 µM with TK-10 renal; 5.46 µM in the assay with SN12C renal; 2.67 µM in the assay on LOX IMVI melanoma; 2.82 µM in the assay on UACC-62 melanoma; 4.7 µM in the assay with CAKI-1 renal. For the same molecule, the TGI in the assay with NCI-H522 lung amounted to 2.45 µM; with OVCAR-5 ovarian, 3.98 µM; with COLO 205 colon it was 2.75 µM.
For the molecule `CC(C)CCCC(C)[C@H]1CCC2[C@@H]3CCC4Cc5nc6c(nc5C[C@]4(C)C3CC[C@@]21C)CC1CC[C@@H]2C(C[C@@H](O)[C@@]3(C)C2C[C@@H]2OC4(CCC(C)CO4)C(C)[C@@H]23)[C@@]1(C)C6` (some centres not stated), the TGI with HOP-62 NSCLC, in the assay on TK-10 renal, with HS 578T breast, with SN12C renal, in the assay with UACC-62 melanoma and in the assay on NCI-H522 lung was over 100 µM each time. The TGI in the assay on OVCAR-5 ovarian and in the assay on COLO 205 colon was over 100 µM in each case.
For `O=C1C(Br)=CC2([N+](=O)[O-])CCNc3c(O)c4c5c(c3C2=C1Br)=NCCC=5C=N4` (configuration not stated), the TGI with HOP-62 NSCLC stood at 11 µM; in the assay with SN12C renal, 5.52 µM; with LOX IMVI melanoma, 6.4 µM; in the assay on UACC-62 melanoma, 3.14 µM; in the assay on CAKI-1 renal, 5.25 µM; with NCI-H522 lung, 0.214 µM. In addition, the TGI was 2.39 µM in the assay on OVCAR-5 ovarian and 0.133 µM in the assay with COLO 205 colon.
Turning to `CCOC(=O)/C(O)=C1\C(=O)N(C)C(=O)C1c1ccc(OC)c(OC)c1` (configuration not stated), the TGI with HOP-62 NSCLC, in the assay on SN12C renal, in the assay on LOX IMVI melanoma, in the assay with UACC-62 melanoma, in the assay on CAKI-1 renal and in the assay with NCI-H522 lung was over 100 µM throughout. Also, the TGI in the assay on OVCAR-5 ovarian and in the assay on COLO 205 colon was over 100 µM each time.
With `Cc1cn(C2CC(n3cc(Cn4cc(F)c(=O)[nH]c4=O)nn3)C(CO)O2)c(=O)[nH]c1=O` (configuration not stated), the TGI in the assay on HOP-62 NSCLC, with TK-10 renal, in the assay with HS 578T breast, with SN12C renal, with LOX IMVI melanoma and with UACC-62 melanoma was over 100 µM each time. In addition, the TGI in the assay on CAKI-1 renal, in the assay on OVCAR-5 ovarian and with COLO 205 colon was over 100 µM in each case.
Turning to `CSc1c(C(=O)Nc2ccccc2)c(N)nn1-c1ccccc1`, the total growth inhibition concentration (TGI) with TK-10 renal, in the assay with HS 578T breast, in the assay on SN12C renal, in the assay with LOX IMVI melanoma, in the assay with UACC-62 melanoma and in the assay with CAKI-1 renal was over 100 µM throughout. Also, the concentration for total growth inhibition (TGI) in the assay with OVCAR-5 ovarian and in the assay with COLO 205 colon was over 100 µM throughout.
For `CCOC(C[Se]CC(OCC)OCC)OCC`, the concentration for total growth inhibition (TGI) in the assay on TK-10 renal is over 100 µM; in the assay with HS 578T breast it was 45.9 µM; in the assay on LOX IMVI melanoma, 59.4 µM; in the assay with UACC-62 melanoma it was over 100 µM; with CAKI-1 renal, over 100 µM; with NCI-H522 lung, over 100 µM. Further, the TGI in the assay with OVCAR-5 ovarian and in the assay with COLO 205 colon was over 100 µM each time.
With `CC(C)C[C@H](NC(=O)[C@H](Cc1cccc2ccccc12)NC(=O)N1CCOCC1)B(O)O`, the 50% growth inhibitory concentration (GI50) in the assay with HOP-62 NSCLC was 0.00383 µM; in the assay with TK-10 renal, 0.00281 µM; with SN12C renal, 0.0029 µM; with LOX IMVI melanoma, 0.00114 µM; with UACC-62 melanoma it was 0.00129 µM; in the assay on CAKI-1 renal, 0.00283 µM. In addition, the 50% growth inhibitory concentration (GI50) with OVCAR-5 ovarian is 0.00186 µM; with COLO 205 colon, 0.00482 µM and 0.015 µM. Also, the TGI with HOP-62 NSCLC is 0.0137 µM and < 0.018 µM; in the assay on TK-10 renal, 0.0226 µM; in the assay on SN12C renal, 0.0115 µM and < 0.0266 µM; in the assay on LOX IMVI melanoma, 0.00304 µM; with UACC-62 melanoma, 0.00338 µM; in the assay on CAKI-1 renal, 0.0147 µM and 0.0371 µM. Also, the TGI with OVCAR-5 ovarian was 0.00534 µM and < 0.0405 µM.

As usually defined, the TGI is the concentration giving total growth inhibition. In general, GI50 refers to the concentration at which growth is held to half of that of the control.
